Test results from patent US20250144067A1, “PERSONALIZED STARVATION THERAPY FOR CANCER” (Faeth Therapeutics, Inc., priority 2021, published 2025).
Where a name gives a salt, the structure may show the parent alone.

Experiments:
[1] = tested on: NCI-H292 lung cancer cells; assay: FDA drug screening, complete media vs cholesterol-free media with simvastatin (TABLE 2); assay type: cell-based, human; settings: for Cholesterol-free media + simvastatin (0.04 μM) / Complete Media: NCI-H292 cells
[2] = tested on: NCI-H292 lung cancer cells; assay: FDA drug screening, complete media vs cholesterol-free media without statin (TABLE 1); assay type: cell-based, human
[3] = complete media minus cholesterol-free media + simvastatin, […]
[4] = Complete minus Cholesterol-free, […]
[5] = NCI-H292 cells, cholesterol-free media without statin, FDA drug library screen
[6] = NCI-H292 cells, complete media, FDA drug library screen
[7] = FDA drug library screen, cholesterol-free media with simvastatin 0.04 μM
[8] = FDA drug library screen, complete media
[9] = complete media minus cholesterol-free media + simvastatin, >0 enhanced anti-cancer activity, about 0 neutral, <0 antagonist
[10] = Complete minus Cholesterol-free, greater than 0 enhanced anti-cancer activity, about 0 neutral, below 0 antagonist
[11] = NCI-H292 cells, FDA drug library screen, cholesterol-free media without statin
[12] = NCI-H292 cells, FDA drug library screen, complete media
[13] = drug in cholesterol-free media with simvastatin 0.04 μM
[14] = complete media vs cholesterol-free media + simvastatin (0.04 μM), >0 enhanced anti-cancer activity, about 0 neutral, <0 antagonist
[15] = NCI-H292 cells, cholesterol-free media without statin
[16] = cholesterol-free media with simvastatin 0.04 μM, cell growth value in FDA drug screen
[17] = complete media, cell growth value in FDA drug screen
[18] = FDA library drug in cholesterol-free media with simvastatin 0.04 μM
[19] = FDA library drug in complete media
[20] = NCI-H292 cells in cholesterol-free media without statin
[21] = NCI-H292 cells in complete media

SMILES: C[N+](C)(CC(=O)Nc1ccccc1)CC(=O)Nc1ccccc1.[Cl-] [Carcainium (chloride)]
- Cholesterol-free media + simvastatin (0.04 μM) ([1]; cholesterol-free media with simvastatin 0.04 μM, […]): 1.019
- Complete Media ([1]; complete media, […]): 1.155
- Difference [1, 3]: 0.14
- Difference [2, 4]: 0.01
- Cholesterol-free [2, 5]: 0.9985
- Complete [2, 6]: 1.004

SMILES: NC(=O)N[C@@H](CCC(=O)O)C(=O)O [Carglumic Acid]
- Cholesterol-free media + simvastatin (0.04 μM) [1, 7]: 0.9383
- Complete Media [1, 8]: 1.207
- Difference [1, 9]: 0.27
- Difference [2, 10]: −0.10
- Cholesterol-free [2, 11]: 1.036
- Complete [2, 12]: 0.9389

SMILES: CN(C)C(=O)N[C@H]1CC[C@H](CCN2CCN(c3cccc(Cl)c3Cl)CC2)CC1 [Cariprazine (hydrochloride)]
- Cholesterol-free media + simvastatin (0.04 μM) [1, 7]: 1.127
- Complete Media [1, 8]: 1.452
- Difference [1, 9]: 0.32
- Difference [2, 10]: −0.14
- Cholesterol-free [2, 11]: 1.158
- Complete [2, 12]: 1.021

SMILES: CCCCCCNC(=O)n1cc(F)c(=O)[nH]c1=O [Carmofur]
- Cholesterol-free media + simvastatin (0.04 μM) [1, 13]: 0.7692
- Complete Media ([1]; drug in complete media): 0.6005
- Difference [1, 14]: −0.17
- Cholesterol-free [2, 15]: 0.5487
- Complete ([2]; NCI-H292 cells, complete media): 0.2009
- Difference ([2]; complete vs cholesterol-free media, greater than 0 enhanced anti-cancer activity, about 0 neutral, below 0 antagonists): −0.35

SMILES: O=NN(CCCl)C(=O)NCCCl [Carmustine]
- Cholesterol-free media + simvastatin (0.04 μM) [1, 7]: 1.071
- Complete Media [1, 8]: 1.247
- Difference [1, 3]: 0.18
- Difference [2, 4]: −0.25
- Cholesterol-free [2, 15]: 0.9766
- Complete ([2]; NCI-H292 cells, complete media): 0.7259

SMILES: CC(C(=O)O)c1ccc2c(c1)[nH]c1ccc(Cl)cc12 (stereo not drawn) [Carprofen]
- Cholesterol-free media + simvastatin (0.04 μM) [1, 16]: 0.8634
- Complete Media [1, 17]: 0.98
- Difference [1, 9]: 0.12
- Difference [2, 10]: −0.18
- Cholesterol-free [2, 11]: 1.071
- Complete [2, 12]: 0.886

SMILES: CC(C)(C)NCC(O)COc1cccc2c1CCC(=O)N2 (stereo not drawn) [Carteolol hydrochloride]
- Cholesterol-free media + simvastatin (0.04 μM) [1, 13]: 1.125
- Complete Media ([1]; drug in complete media): 0.8865
- Difference [1, 14]: −0.24
- Difference [2, 10]: −0.19
- Cholesterol-free [2, 11]: 1.114
- Complete [2, 12]: 0.9284

SMILES: COc1ccccc1OCCNCC(O)COc1cccc2[nH]c3ccccc3c12 (stereo not drawn) [Carvedilol]
- Cholesterol-free media + simvastatin (0.04 μM) [1, 18]: 1.448
- Complete Media [1, 19]: 0.9665
- Difference [1, 14]: −0.48
- Difference [2, 10]: −0.18
- Cholesterol-free [2, 11]: 1.133
- Complete [2, 12]: 0.9579

SMILES: N[C@@H](C(=O)N[C@@H]1C(=O)N2C(C(=O)O)=C(Cl)CS[C@H]12)c1ccccc1 [Cefaclor]
- Cholesterol-free media + simvastatin (0.04 μM) [1, 16]: 1.593
- Complete Media [1, 17]: 1.696
- Difference [1, 9]: 0.10
- Difference [2, 10]: −0.11
- Cholesterol-free [2, 11]: 1.02
- Complete [2, 12]: 0.9111

SMILES: CC1=C(C(=O)O)N2C(=O)[C@@H](NC(=O)[C@H](N)c3ccc(O)cc3)[C@H]2SC1 [Cefadroxil]
- Cholesterol-free media + simvastatin (0.04 μM) [1, 7]: 1.041
- Complete Media [1, 8]: 1.588
- Difference [1, 9]: 0.55
- Cholesterol-free [2, 5]: 1.424
- Complete [2, 6]: 1.685
- Difference ([2]; complete vs cholesterol-free media, >0 enhanced anti-cancer activity, about 0 neutral, <0 antagonist): 0.26

SMILES: Cn1nnnc1SCC1=C(C(=O)[O-])N2C(=O)[C@@H](NC(=O)[C@H](O)c3ccccc3)[C@H]2SC1.[Na+] [Cefamandole (sodium)]
- Cholesterol-free media + simvastatin (0.04 μM) [1, 18]: 2.169
- Complete Media [1, 19]: 1.429
- Difference [1, 14]: −0.74
- Difference [2, 10]: −0.12
- Cholesterol-free [2, 11]: 1.243
- Complete [2, 12]: 1.12

SMILES: CC(=O)OCC1=C(C(=O)O)N2C(=O)[C@@H](NC(=O)CSC(=NC(C)C)NC(C)C)[C@H]2SC1 [Cefathiamidine]
- Cholesterol-free media + simvastatin (0.04 μM) [1, 7]: 0.9136
- Complete Media [1, 8]: 0.833
- Difference ([1]; complete media vs cholesterol-free media + simvastatin (0.04 μM), […]): −0.08
- Difference [2, 4]: −0.30
- Cholesterol-free [2, 15]: 1.276
- Complete ([2]; NCI-H292 cells, complete media): 0.9789

SMILES: Cc1nnc(SCC2=C(C(=O)O)N3C(=O)[C@@H](NC(=O)Cn4cc(Cl)c(=O)c(Cl)c4)[C@H]3SC2)s1 [Cefazedone]
- Cholesterol-free media + simvastatin (0.04 μM) [1, 7]: 1.153
- Complete Media [1, 8]: 1.591
- Difference [1, 3]: 0.44
- Difference [2, 4]: −0.67
- Cholesterol-free [2, 20]: 1.61
- Complete [2, 21]: 0.9409

SMILES: Cc1nnc(SCC2=C(C(=O)[O-])N3C(=O)[C@@H](NC(=O)Cn4cnnn4)[C@H]3SC2)s1.[Na+] [Cefazolin (sodium)]
- Cholesterol-free media + simvastatin (0.04 μM) [1, 18]: 1.378
- Complete Media [1, 19]: 1.076
- Difference [1, 14]: −0.30
- Difference ([2]; Complete minus Cholesterol-free, greater than 0 enhanced anti-cancer activity, about 0 neutral, below 0 antagonists): −0.79
- Cholesterol-free [2, 20]: 1.776
- Complete [2, 21]: 0.9866
